Test results taken from ChEMBL document CHEMBL1151685, “Structure-activity relationship of antibacterial chalcones” (2008).
Converted amounts (≈) assume the structure as drawn.

Key:
Assay type in all cases: functional
Bacillus cereus = assay: Antibacterial activity against Bacillus cereus ATCC 11778 after 24 hrs by microdilution broth method; settings: ATCC 11778, 24 h
Escherichia coli = assay: Antibacterial activity against Escherichia coli ATCC 25922 after 24 hrs by microdilution broth method; settings: ATCC 25922, 24 h
Pseudomonas aeruginosa = assay: Antibacterial activity against Pseudomonas aeruginosa ATCC 27853 after 24 hrs by microdilution broth method; settings: ATCC 27853, 24 h
Staphylococcus aureus = assay: Antibacterial activity against Staphylococcus aureus ATCC 25923 after 24 hrs by microdilution broth method; settings: ATCC 25923, 24 h

| Compound | MIC (Bacillus cereus) [µg/mL] | MIC (Escherichia coli) [µg/mL] | MIC (Pseudomonas aeruginosa) [µg/mL] | MIC (Staphylococcus aureus) [µg/mL] | MBC (Bacillus cereus) [µg/mL] | MBC (Escherichia coli) [µg/mL] | MBC (Pseudomonas aeruginosa) [µg/mL] | MBC (Staphylococcus aureus) [µg/mL] |
| --- | --- | --- | --- | --- | --- | --- | --- | --- |
| CC(C)=CCc1c(O)ccc(C(=O)/C=C/c2ccccc2)c1O [ISOCORDOIN] | 2000 (≈ 6.49 mM) | 2000 (≈ 6.49 mM) | 2000 (≈ 6.49 mM) | 2000 (≈ 6.49 mM) | 2000 (≈ 6.49 mM) | 2000 (≈ 6.49 mM) | 1000 (≈ 3.24 mM) | 2000 (≈ 6.49 mM) |
| CN(C)[C@@H]1C(O)=C(C(N)=O)C(=O)[C@@]2(O)C(O)=C3C(=O)c4c(O)cccc4[C@@](C)(O)[C@H]3C[C@@H]12 [TETRACYCLINE] | 0.25 (≈ 0.000563 mM) | 2 (≈ 0.0045 mM) | 32 (≈ 0.072 mM) | 1 (≈ 0.00225 mM) |  |  |  |  |
| COc1cc(OC)c(C(=O)CCc2ccc3c(c2)OCO3)cc1OC | 2000 (≈ 5.81 mM) | 2000 (≈ 5.81 mM) | 2000 (≈ 5.81 mM) | 2000 (≈ 5.81 mM) | 2000 (≈ 5.81 mM) | 2000 (≈ 5.81 mM) | 2000 (≈ 5.81 mM) | 2000 (≈ 5.81 mM) |
| COc1ccc(C(=O)/C=C/c2ccccc2O)c(O)c1CC=C(C)C | 2000 (≈ 5.91 mM) | 2000 (≈ 5.91 mM) | 2000 (≈ 5.91 mM) | 2000 (≈ 5.91 mM) | 2000 (≈ 5.91 mM) | 2000 (≈ 5.91 mM) | 2000 (≈ 5.91 mM) | > 2000 |
| COc1ccc(C(=O)/C=C/c2c(OC)cc(OC)c(OC)c2OC)cc1OC | 2000 (≈ 5.15 mM) | 2000 (≈ 5.15 mM) | 2000 (≈ 5.15 mM) | 2000 (≈ 5.15 mM) | 2000 (≈ 5.15 mM) | > 2000 | > 2000 | > 2000 |
| COc1cc(OC)c(C(=O)/C=C/c2ccc3c(c2)OCO3)c(OC)c1OC | 2000 (≈ 5.37 mM) | 2000 (≈ 5.37 mM) | 2000 (≈ 5.37 mM) | > 2000 | > 2000 | 2000 (≈ 5.37 mM) | 2000 (≈ 5.37 mM) | > 2000 |
| CC1(C)C=Cc2c(ccc(C(=O)/C=C/c3ccccc3)c2O)O1 [LONCHOCARPIN] | 2000 (≈ 6.53 mM) | 1000 (≈ 3.26 mM) | 2000 (≈ 6.53 mM) | 2000 (≈ 6.53 mM) | 2000 (≈ 6.53 mM) | 1000 (≈ 3.26 mM) | 2000 (≈ 6.53 mM) | 2000 (≈ 6.53 mM) |
| CC1(C)C=Cc2cc(C(=O)/C=C/c3ccccc3)c(O)cc2O1 [ISOLONCHOCARPIN] | 1000 (≈ 3.26 mM) | 2000 (≈ 6.53 mM) | 2000 (≈ 6.53 mM) | 2000 (≈ 6.53 mM) | > 2000 | > 2000 | > 2000 | > 2000 |
| O=C(/C=C/c1ccc(O)cc1)c1ccc(O)cc1O [ISOLIQUIRITIGENIN] | 62.5 (≈ 0.244 mM) | 2000 (≈ 7.8 mM) | 2000 (≈ 7.8 mM) | 62.5 (≈ 0.244 mM) | 62.5 (≈ 0.244 mM) | 2000 (≈ 7.8 mM) | 2000 (≈ 7.8 mM) | 62.5 (≈ 0.244 mM) |
| COc1ccc(C(=O)/C=C/c2ccc(O)cc2)cc1 | 2000 (≈ 7.87 mM) | 1000 (≈ 3.93 mM) | 1000 (≈ 3.93 mM) | 2000 (≈ 7.87 mM) | 2000 (≈ 7.87 mM) | 2000 (≈ 7.87 mM) | 2000 (≈ 7.87 mM) | 2000 (≈ 7.87 mM) |

More lines, main results first:

| MIC (Bacillus cereus) [µg/mL] | MIC (Escherichia coli) [µg/mL] | MIC (Pseudomonas aeruginosa) [µg/mL] | MIC (Staphylococcus aureus) [µg/mL] | Compound | MBC (Bacillus cereus) [µg/mL] | MBC (Escherichia coli) [µg/mL] | MBC (Pseudomonas aeruginosa) [µg/mL] | MBC (Staphylococcus aureus) [µg/mL] |
| --- | --- | --- | --- | --- | --- | --- | --- | --- |
| 250 (≈ 0.761 mM) | 2000 (≈ 6.09 mM) | 2000 (≈ 6.09 mM) | 1000 (≈ 3.05 mM) | COc1ccccc1/C=C/C(=O)c1cc(OC)c(OC)cc1OC | 250 (≈ 0.761 mM) | 2000 (≈ 6.09 mM) | 2000 (≈ 6.09 mM) | 1000 (≈ 3.05 mM) |
| 500 (≈ 2.21 mM) | 2000 (≈ 8.84 mM) | 1000 (≈ 4.42 mM) | 500 (≈ 2.21 mM) | O=C(CCc1ccccc1O)c1ccccc1 | 500 (≈ 2.21 mM) | 2000 (≈ 8.84 mM) | 2000 (≈ 8.84 mM) | 500 (≈ 2.21 mM) |
| 1000 (≈ 3.18 mM) | 2000 (≈ 6.36 mM) | 1000 (≈ 3.18 mM) | 2000 (≈ 6.36 mM) | COc1ccc(/C=C/C(=O)c2cc(OC)c(OC)cc2O)cc1 | > 2000 | > 2000 | > 2000 | > 2000 |
| 1000 (≈ 3.52 mM) | 1000 (≈ 3.52 mM) | 1000 (≈ 3.52 mM) | 1000 (≈ 3.52 mM) | COc1ccc(C(=O)/C=C/c2ccccc2O)cc1OC | 1000 (≈ 3.52 mM) | 2000 (≈ 7.03 mM) | > 2000 | 2000 (≈ 7.03 mM) |
| 1000 (≈ 3.08 mM) | 2000 (≈ 6.17 mM) | 2000 (≈ 6.17 mM) | 2000 (≈ 6.17 mM) | CC(C)=CCOc1ccc(C(=O)/C=C/c2ccc(O)cc2)c(O)c1 | 1000 (≈ 3.08 mM) | > 2000 | 2000 (≈ 6.17 mM) | 2000 (≈ 6.17 mM) |
